The record followed here is patent US4459302A, “Acyl-1H-1,2,4-triazole derivatives” (Gruppo Lepetit, S.p.A., priority 1978, dated 1984).

One assay has as its system female Syrian golden hamsters. Put plainly: antifertility (post-coital post-implantation) activity, subcutaneous, hamsters. It is filed as in vivo, Syrian golden hamster. The settings on record: Mesocricetus auratus, sc, 336 h; s.c. hamster; dosed days 4-8 of pregnancy, autopsy day 14; read-out: ED50 (100% activity, absence of live fetuses, in 50% of the animals). The text has this: Fertility regulation can usually be achieved in a number of ways through the administration of hormonal substances. These can involve ovulation inhibition, ova transport, fertilization, implantation of the zygote, resorption of the fetus or abortion. Only with ovulation inhibition has there developed a successful method that is clinically useful. The compounds of this invention allow an entirely new approach to this problem in which a non-hormonal compound can be administered parenterally, orally or by intravaginal route once or more times as needed after a "missed period" or to induce termination of a more advanced pregnancy. Representative experiments for assessing antifertility activity were carried out with female Syrian golden hamsters weighing 100 to 130 g. The animals were mated and the presence of sperm in the vagina was taken as evidence of mating. The day sperm was detected and considered day one of pregnancy, since in our laboratories and those of other investigators 90 to 100% of animals that mate as evidenced by vaginal sperm are pregnant.
Pregnancy was later confirmed at the time of autopsy by presence of fetuses or implantation sites in the uterus. Even if an animal aborts the fetus, implantation scars still remain as evidence that the animal has been pregnant. […] The animals were autopsied on day 14 of pregnancy and the uteri were examined for evidence of pregnancy (implantation sites, fetalresorption or live fetuses), hemorrhage, and evidence of abnormalities of the uterus, placenta or fetuses. A compound was considered to be active if there was a reduction of live fetuses in at least 60% of the treated animals and the presence of implantation sites proves the animal to have been pregnant.
The compounds were then studied for dose-activity relationship and the corresponding ED50 values, i.e. 100% activity (absence of live fetuses) in 50% of the animals, were also detrmined. The following Table reports the ED50 values of some representative compounds of the invention as well as that of the above mentioned known substance: […]
Regarding `COc1cccc(-c2nc(-c3ccccc3C)n(C)n2)c1` [1-Methyl-3-(3-methoxyphenyl)-5-(2-methylphenyl)-1H-1,2,4,-triazole, reference compound], the ED50 (commonly the dose at which the effect has come halfway, by size or by number of responders) is greater than 10 mg/kg.

On to `COc1cccc(-c2nc(-c3ccccc3C)n(C(C)=O)n2)c1` [Example 1, 1-Acetyl-3-(3-methoxyphenyl)-5-(2-methylphenyl)-1H-1,2,4-triazole], for which the ED50 is 0.05 mg/kg.

On to `CCC(=O)n1nc(-c2cccc(OC)c2)nc1-c1ccccc1C` [Example 2, 1-Propionyl-3-(3-methoxyphenyl)-5-(2-methylphenyl)-1H-1,2,4-triazole], for which the ED50 worked out at 0.07 mg/kg.

As for `COc1cccc(-c2nc(-c3ccccc3C)n(C(=O)C(C)(C)C)n2)c1` [Example 3, 1-(2,2-Dimethylpropionyl)-3-(3-methoxyphenyl)-5-(2-methylphenyl)-1H-1,2,4-triazole], the ED50 was 0.15 mg/kg.

For the compound `COc1cccc(-c2nc(-c3ccc(Cl)cc3C)n(C(C)=O)n2)c1` [Example 5, 1-Acetyl-5-(4-chloro-2-methylphenyl)-3-(3-methoxyphenyl)-1H-1,2,4-triazole], the ED50 came out at 0.06 mg/kg.

For the compound `CCc1ccccc1-c1nc(-c2cccc(OC)c2)nn1C(C)=O` [Example 6, 1-Acetyl-5-(2-ethylphenyl)-3-(3-methoxyphenyl)-1H-1,2,4-triazole], the ED50 came out at 0.04 mg/kg.

As to `COc1cccc(-c2nc(-c3ccccc3COC(C)=O)n(C(C)=O)n2)c1` [Example 7, 1-Acetyl-5-(2-acetoxymethylphenyl)-3-(3-methoxyphenyl)-1H-1,2,4-triazole], the ED50 worked out at 0.04 mg/kg.

On to `CCOC(=O)n1nc(-c2cccc(OC)c2)nc1-c1ccccc1CC` [Example 8, 1-Carbethoxy-5-(2-ethylphenyl)-3-(3-methoxyphenyl)-1H-1,2,4-triazole], for which the median effective dose (ED50) is 0.05 mg/kg.

Turning to `CCc1ccccc1-c1nc(-c2cccc(OC)c2)nn1C(=O)OC` [Example 9, 1-Carbomethoxy-5-(2-ethylphenyl)-3-(3-methoxyphenyl)-1H-1,2,4-triazole], the 50% effective dose (ED50) worked out at 0.05 mg/kg.

`CCOC(=O)n1nc(-c2cccc(OC)c2)nc1-c1ccccc1C` [Example 10, 1-Carbethoxy-3-(3-methoxyphenyl)-5-(2-methylphenyl)-b 1H-1,2,4-triazole]: the ED50 came out at 0.06 mg/kg.

`COc1cccc(-c2nc(-c3ccccc3C)n(C(=O)c3ccccc3)n2)c1` [Example 11, 1-Benzoyl-3-(3-methoxyphenyl)-5-(2-methylphenyl)-1H-1,2,4-triazole]: the ED50 was determined as 0.1 mg/kg.

On to `COc1cccc(-c2nc(-c3ccccc3C)n(C(=O)Nc3ccccc3)n2)c1` [Example 13, 3-(3-Methoxyphenyl)-5-(2-methylphenyl)-1-phenylcarbamoyl-1H-1,2,4-triazole], for which the ED50 is 0.05 mg/kg.

Consider `CCNC(=O)n1nc(-c2cccc(OC)c2)nc1-c1ccccc1C` [Example 14], for which the ED50 turned out to be 0.15 mg/kg.

With `CCc1ccccc1-c1nc(-c2cccc(OC)c2)nn1C(=O)NC` [Example 15, 5-(2-Ethylphenyl)-3-(3-methoxyphenyl)-1-methylcarbamoyl-1H-1,2,4-triazole], the ED50 came out at 0.05 mg/kg.

As to `CCc1ccccc1-c1nc(-c2cccc(OC)c2)nn1C(=O)Nc1ccccc1` [Example 16], the ED50 was found to be 0.05 mg/kg.

On to `CCc1ccccc1-c1nc(-c2cccc(OC)c2)nn1C(=O)Nc1ccc(OC)cc1` [Example 17, 5-(2-Ethylphenyl)-3-(3-methoxyphenyl)-1-(4-methoxyphenylcarbamoyl)-1H-1,2,4-triazole], for which the ED50 is 0.07 mg/kg.

Consider `CCc1ccccc1-c1nc(-c2cccc(OC)c2)nn1C(=O)Nc1ccccc1Cl` [Example 18], for which the ED50 was 0.05 mg/kg.

As to `CCc1ccccc1-c1nc(-c2cccc(OC)c2)nn1C(=O)Nc1ccc(Cl)cc1` [Example 19, 1-(4-Chlorophenylcarbamoyl)-5-(2-ethylphenyl)-3-(3-methoxyphenyl)-1H-1,2,4-triazole], the ED50 was determined as 0.05 mg/kg.

Turning to `CCc1ccccc1-c1nc(-c2cccc(OC)c2)nn1C(=O)Nc1ccc([N+](=O)[O-])cc1` [Example 20, 5-(2-Ethylphenyl)-3-(3-methoxyphenyl)-1-(4-nitrophenyl)carbamoyl-1H-1,2,4-triazole], the ED50 was 0.05 mg/kg.

As to `CCc1ccccc1-c1nc(-c2cccc(OC)c2)nn1C(=O)Nc1ccc(C)cc1` [Example 21a, 5-(2-Ethylphenyl)-3-(3-methoxyphenyl)-1-(4-methylphenylcarbamoyl)-1H-1,2,4-triazole], the ED50 worked out at 0.05 mg/kg.

For `CCc1ccccc1-c1nc(-c2cccc(OC)c2)n(C(=O)Nc2ccc(C)cc2)n1` [Example 21b, 3-(2-ethylphenyl)-5-(3-methoxyphenyl)-1-(4-methylphenylcarbamoyl)-1H-1,2,4-triazole], the median effective dose (ED50) stood at 0.04 mg/kg.

Turning to `COc1cccc(-c2nc(-c3ccccc3C)n(C(=O)Nc3ccc(C)cc3)n2)c1` [Example 22a, 3-(3-methoxyphenyl)-5-(2-methylphenyl)-1-(4-methylphenylcarbamoyl)-1H-1,2,4-triazole], the 50% effective dose (ED50) was found to be 0.08 mg/kg.

As for `COc1cccc(-c2nc(-c3ccccc3C)nn2C(=O)Nc2ccc(C)cc2)c1` [Example 22b, 5-(3-methoxyphenyl)-3-(2-methylphenyl)-1-(4-methylphenylcarbamoyl)-1H-1,2,4-triazole], the ED50 turned out to be 0.08 mg/kg.

In the case of `COc1cccc(-c2n[nH]c(-c3ccccc3COC(C)=O)n2)c1` [Example 24, 5-(2-Acetoxymethylphenyl)-3-(3-methoxyphenyl)-1H-1,2,4-triazole], the ED50 turned out to be 0.04 mg/kg.

Staying with this assay, now noted: hamster, 10 mg/kg s.c. daily for 5 days, days 4-8 of pregnancy.
As to `COc1cccc(-c2nc(-c3ccccc3C)n(C)n2)c1` [1-Methyl-3-(3-methoxyphenyl)-5-(2-methylphenyl)-1H-1,2,4,-triazole, reference compound], the “activity by the criterion: reduction of live fetuses in at least 60% of the treated animals” value is given as “much less active”.
